Measured values: ChEMBL document CHEMBL1649262, “Nosocomial spread of colistin-only-sensitive sequence type 235 Pseudomonas aeruginosa isolates producing the extended-spectrum beta-lactamases GES-1 and GES-5 in Spain” (2009)
Values after ≈ are worked out from the molar mass of the structure shown.

Legend:
Pseudomonas aeruginosa [1] = test: Antibacterial activity against mexB and mexY expressing Pseudomonas aeruginosa PA-A1 harboring GyrA T83I, ParC S87L and IS1001 insertion at position 629 in OprD gene by Etest method; assay type: functional
Pseudomonas aeruginosa [2] = test: Antibacterial activity against Pseudomonas aeruginosa PAO1 by Etest method; assay type: functional
Pseudomonas aeruginosa [3] = test: Antibacterial activity against mexB and mexY expressing Pseudomonas aeruginosa PA-A2 harboring GyrA T83I, ParC S87L and IS1001 insertion at position 629 in OprD gene by Etest method; assay type: functional
Pseudomonas aeruginosa [4] = test: Antibacterial activity against mexB and mexY expressing Pseudomonas aeruginosa PA-A3 harboring GyrA T83I, ParC S87L and IS1001 insertion at position 629 in OprD gene by Etest method; assay type: functional
Pseudomonas aeruginosa [5] = test: Antibacterial activity against Pseudomonas aeruginosa PAO1 harboring plasmid pA1 by Etest method; assay type: functional
Pseudomonas aeruginosa [6] = test: Antibacterial activity against Pseudomonas aeruginosa PAO1 harboring plasmid pA1 by Etest in presence of clavulanic acid
Pseudomonas aeruginosa [7] = test: Antibacterial activity against Pseudomonas aeruginosa PAO1 by Etest method in presence of Tazobactam; assay type: functional
Pseudomonas aeruginosa [8] = test: Antibacterial activity against mexB and mexY expressing Pseudomonas aeruginosa PA-A1 harboring GyrA T83I, ParC S87L and IS1001 insertion at position 629 in OprD gene by Etest method in presence of Tazobactam; assay type: functional
Pseudomonas aeruginosa [9] = test: Antibacterial activity against mexB and mexY expressing Pseudomonas aeruginosa PA-A2 harboring GyrA T83I, ParC S87L and IS1001 insertion at position 629 in OprD gene by Etest method in presence of Tazobactam; assay type: functional
Pseudomonas aeruginosa [10] = test: Antibacterial activity against mexB and mexY expressing Pseudomonas aeruginosa PA-A3 harboring GyrA T83I, ParC S87L and IS1001 insertion at position 629 in OprD gene by Etest method in presence of Tazobactam; assay type: functional
Pseudomonas aeruginosa [11] = test: Antibacterial activity against Pseudomonas aeruginosa PAO1 harboring plasmid pA1 by Etest method in presence of Tazobactam; assay type: functional

NCC[C@H](O)C(=O)N[C@@H]1C[C@H](N)[C@@H](O[C@H]2O[C@H](CN)[C@@H](O)[C@H](O)[C@H]2O)[C@H](O)[C@H]1O[C@H]1O[C@H](CO)[C@@H](O)[C@H](N)[C@H]1O [AMIKACIN]
MIC (Pseudomonas aeruginosa [1]): > 256 µg/mL | MIC (Pseudomonas aeruginosa [2]): 4 µg/mL (≈ 6.83 µM) | MIC (Pseudomonas aeruginosa [3]): > 256 µg/mL | MIC (Pseudomonas aeruginosa [4]): > 256 µg/mL | MIC (Pseudomonas aeruginosa [5]): > 32 µg/mL

C[C@H]1[C@H](NC(=O)/C(=N\OC(C)(C)C(=O)O)c2csc(N)n2)C(=O)N1S(=O)(=O)O [AZTREONAM]
MIC (Pseudomonas aeruginosa [1]): > 256 µg/mL | MIC (Pseudomonas aeruginosa [2]): 1.5 µg/mL (≈ 3.44 µM) | MIC (Pseudomonas aeruginosa [3]): > 256 µg/mL | MIC (Pseudomonas aeruginosa [4]): > 256 µg/mL | MIC (Pseudomonas aeruginosa [5]): > 256 µg/mL

CO/N=C(\C(=O)N[C@@H]1C(=O)N2C(C(=O)[O-])=C(C[N+]3(C)CCCC3)CS[C@H]12)c1csc(N)n1 [CEFEPIME]
MIC (Pseudomonas aeruginosa [1]): > 256 µg/mL | MIC (Pseudomonas aeruginosa [3]): > 256 µg/mL | MIC (Pseudomonas aeruginosa [4]): > 256 µg/mL | MIC (Pseudomonas aeruginosa [5]): > 256 µg/mL

CC(C)(O/N=C(\C(=O)N[C@@H]1C(=O)N2C(C(=O)[O-])=C(C[n+]3ccccc3)CS[C@H]12)c1csc(N)n1)C(=O)O [CEFTAZIDIME]
MIC (Pseudomonas aeruginosa [1]): > 256 µg/mL | MIC (Pseudomonas aeruginosa [2]): 1 µg/mL (≈ 1.83 µM) | MIC (Pseudomonas aeruginosa [3]): > 256 µg/mL | MIC (Pseudomonas aeruginosa [4]): > 256 µg/mL | MIC (Pseudomonas aeruginosa [5]): > 256 µg/mL

O=C(O)c1cn(C2CC2)c2cc(N3CCNCC3)c(F)cc2c1=O [CIPROFLOXACIN]
MIC (Pseudomonas aeruginosa [1]): > 32 µg/mL | MIC (Pseudomonas aeruginosa [3]): > 32 µg/mL | MIC (Pseudomonas aeruginosa [4]): > 32 µg/mL | MIC (Pseudomonas aeruginosa [5]): 0.064 µg/mL (≈ 0.193 µM)

C[C@@H](O)[C@H]1C(=O)N2C(C(=O)O)=C(SCCNC=N)C[C@H]12 [IMIPENEM ANHYDROUS]
MIC (Pseudomonas aeruginosa [1]): > 32 µg/mL | MIC (Pseudomonas aeruginosa [2]): 1 µg/mL (≈ 3.34 µM) | MIC (Pseudomonas aeruginosa [3]): > 32 µg/mL | MIC (Pseudomonas aeruginosa [4]): > 32 µg/mL | MIC (Pseudomonas aeruginosa [5]): 8 µg/mL (≈ 26.7 µM) | MIC (Pseudomonas aeruginosa [6]): 4 µg/mL

C[C@@H](O)[C@H]1C(=O)N2C(C(=O)O)=C(S[C@@H]3CN[C@H](C(=O)N(C)C)C3)[C@H](C)[C@H]12 [MEROPENEM]
MIC (Pseudomonas aeruginosa [1]): > 32 µg/mL | MIC (Pseudomonas aeruginosa [2]): 0.25 µg/mL (≈ 0.652 µM) | MIC (Pseudomonas aeruginosa [3]): > 32 µg/mL | MIC (Pseudomonas aeruginosa [4]): > 32 µg/mL | MIC (Pseudomonas aeruginosa [5]): > 32 µg/mL

CCN1CCN(C(=O)N[C@@H](C(=O)N[C@@H]2C(=O)N3[C@@H]2SC(C)(C)[C@@H]3C(=O)O)c2ccccc2)C(=O)C1=O [PIPERACILLIN]
MIC (Pseudomonas aeruginosa [1]): > 256 µg/mL | MIC (Pseudomonas aeruginosa [2]): 3 µg/mL (≈ 5.8 µM) | MIC (Pseudomonas aeruginosa [3]): > 256 µg/mL | MIC (Pseudomonas aeruginosa [4]): > 256 µg/mL | MIC (Pseudomonas aeruginosa [5]): > 256 µg/mL | MIC (Pseudomonas aeruginosa [7]): 2 µg/mL | MIC (Pseudomonas aeruginosa [8]): > 256 µg/mL | MIC (Pseudomonas aeruginosa [9]): > 256 µg/mL | MIC (Pseudomonas aeruginosa [10]): > 256 µg/mL | MIC (Pseudomonas aeruginosa [11]): > 256 µg/mL

NC[C@H]1O[C@H](O[C@H]2[C@H](O)[C@@H](O[C@H]3O[C@H](CO)[C@@H](O)[C@H](N)[C@H]3O)[C@H](N)C[C@@H]2N)[C@H](N)C[C@@H]1O [TOBRAMYCIN]
MIC (Pseudomonas aeruginosa [1]): > 256 µg/mL | MIC (Pseudomonas aeruginosa [2]): 1 µg/mL (≈ 2.14 µM) | MIC (Pseudomonas aeruginosa [3]): > 256 µg/mL | MIC (Pseudomonas aeruginosa [4]): > 256 µg/mL | MIC (Pseudomonas aeruginosa [5]): 16 µg/mL (≈ 34.2 µM)

COLISTIN
MIC (Pseudomonas aeruginosa [1]): 2 µg/mL | MIC (Pseudomonas aeruginosa [2]): 1 µg/mL | MIC (Pseudomonas aeruginosa [3]): 2 µg/mL | MIC (Pseudomonas aeruginosa [4]): 2 µg/mL | MIC (Pseudomonas aeruginosa [5]): 1 µg/mL

GENTAMICIN
MIC (Pseudomonas aeruginosa [1]): > 256 µg/mL | MIC (Pseudomonas aeruginosa [2]): 2 µg/mL | MIC (Pseudomonas aeruginosa [3]): > 256 µg/mL | MIC (Pseudomonas aeruginosa [4]): > 256 µg/mL
